Laboratory results from patent US9409952B2, “Peptide-compound cyclization method” (Chugai Seiyaku Kabushiki Kaisha, priority 2011, dated 2016).
Positions of bridges follow the written chain, without caps; N, C: chain ends. Non-standard residues stand in square brackets, D forms with d. Residues, ends and D or L forms follow the SMILES beside them. *: point of attachment. Bip = N[C@@H](Cc1ccc(-c2ccccc2)cc1)C(=O)O; NMeF = CN[C@@H](Cc1ccccc1)C(=O)O; NMeI = CC[C@H](C)[C@H](NC)C(=O)O; NMeL = CN[C@@H](CC(C)C)C(=O)O; NMeA = CN[C@@H](C)C(=O)O; Piperidide = C1CCN(*)CC1; Sar = CNCC(=O)O; tBu = CC(C)(C)*

How the values were obtained:
[1] = Stability of aminoacylated pdCpA in buffers and on storage (LC-MS); type: physicochemical; conditions: for % by LC-MS during StBu deprotection: 250 μM Compound 2n-A, 50 mM Tris-HCl pH 7, 10 mM DTT
Protocol: The side chain StBu of pdCpA-Cys was deprotected using the precursor Compound 2n-A, and the following experiment was carried out to examine stability of the deprotected Compound 2e-A. The side chain was deprotected at room temperature under the conditions of 250 μM of Compound 2n-A, 50 mM Tris-HCl buffer, pH 7, and 10 mM DTT, and the time course of the deprotection was observed by LC-MS (SQD). The intended Compound 2e-A was not observed, and pdCpA resulting from hydrolysis of pdCpA-Cys was observed. After 5 minutes, Compound 2n-A was 51%, Compound 2e-A was 0%, and pdCpA was 49%. After 2 hours, deprotection was completed and Compound 2n-A was 0%, but Compound 2e-A was 0% and all hydrolized so that pdCpA was 100% (FIG. 13).
Stability of Compound 2n-A with the SH group of Cys protected was evaluated. Storage samples were prepared under five conditions as shown in the following Table 2 were prepared, respectively, and analyzed by LC-MS.
Stability of Compound 2n-B with the SH group of MeCys protected was also evaluated. Storage samples were prepared under four conditions as shown in the following Table 3 were prepared and analyzed by LC-MS.

[2] = Serum stability test in mouse serum; type: in vitro ADME; conditions: both sexes, pH 7.4, two hours, read-out: Serum stability t1/2 (Mouse)
Protocol: (§1) The obtained compound was metabolically reacted at a concentration of 2 uM with mouse serum (male/female mixed, Valley Biomedical, USA) (adjusted to pH 7.4 with 33.5 mM HEPES buffer) for two hours. Deproteinization treatment with acetonitrile was provided over time, the amount of the remaining unchanged compound was analyzed using LC/MS, and the metabolic half-life (t1/2) was calculated. A microsome solution prepared at 0.5 mg protein/mL from mouse hepatic microsome and small intestinal microsome (male, XENOTECH, USA) using 100 mM phosphate buffer (pH 7.4) was metabolically reacted with the compound at a concentration of 1 uM for 30 minutes in the presence or absence of NADPH. Deproteinization treatment with acetonitrile was provided over time, the amount of the remaining unchanged compound was analyzed using LC/MS, and the hepatic-intrinsic clearance (CLh, int) and the small intestinal-intrinsic clearance (CLg, int) were calculated (Table 7). Such peptides were sufficiently slowly metabolized by hydrolysis with peptidases or the like in mouse sera and microsomes, contrary to peptides composed of natural amino acids having low lipophilicity.

[3] = Metabolic stability in mouse hepatic microsome; type: in vitro ADME; conditions: 0.5 mg protein/mL, 1 uM, 30 minutes; for Hepatic Microsome CLh, int (Mouse) In the absence of NADPH: without NADPH; for microsomal CLint at 1 uM: male, mouse, liver microsomes, pH 7.4, with NADPH, read-out: Hepatic Microsome CLh, int (Mouse) In the presence of NADPH
Protocol: as §1
Metabolic stability tests were carried out in the same manner as shown in 2-1.

[4] = PAMPA (parallel artificial membrane permeability assay); type: in vitro ADME; conditions: PAMPA, pH 6.5
Summary of the method: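 Artificial membrane was 10% (w/v) egg lecithin plus 0.5% (w/v) cholesterol in dodecane on a PVDF filter. A 10 mM DMSO stock was added at 0.5% (v/v) to donor buffer (50 mM MOPSO, pH 6.5, 5.0% glycocholic acid). After 18 h at 37 °C, LC/MS or LC/UV gave donor and acceptor levels for Pe.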

[5] = Metabolic stability in human hepatic microsome; type: in vitro ADME; conditions: human, microsomes, pH 7.4, CL NADPH(+)
in vivo = conditions: male, C57BL/6J, mouse, 20 mg/kg
[6] = room temperature, after 5 minutes
[7] = room temperature, after 2 hours
[8] = In AcONa buffer, 1 mM, pH 5, room temperature, 1 hour
[9] = In DMSO, 5 mM, pH 4, 0° C., 2.5 days
[10] = In HEPES buffer, 1 mM, pH 7, room temperature, 1 hour
[11] = Stored as solid, room temperature, 16 days
[12] = pdCpA-MeCys(StBu): In AcONa buffer, 1 mM, pH 5, room temperature, 5 hours
[13] = pdCpA-MeCys(StBu): In DMSO, 5 mM, pH 4, 0° C., 1 day
[14] = pdCpA-MeCys(StBu): In HEPES buffer, 1 mM, pH 7, room temperature, 1 hour
[15] = pdCpA-MeCys(StBu): In Tris buffer, 1 mM, pH 7, room temperature, 1 hour

CC(C)(C)SSC[C@H](N)C(=O)O[C@H]1[C@@H](O)[C@H](n2cnc3c(N)ncnc32)O[C@@H]1COP(=O)(O)O[C@H]1C[C@H](n2ccc(N)nc2=O)O[C@@H]1COP(=O)(O)O [Compound 2n-A, (2R)-(2R,3S,4R,5R)-2-((((((2R,3S,5R)-5-(4-amino-2-oxopyrimidin-1(2H)-yl)-2-((phosphonooxy)methyl)tetrahydrofuran-3-yl)oxy)(hydroxy)phosphoryl)oxy)methyl)-5-(6-amino-9H-purin-9-yl)-4-hydroxytetrahydrofuran-3-yl 2-amino-3-(tert-butyldisulfanyl)propanoate]
% by LC-MS during StBu deprotection [1, 6]: 51%
% by LC-MS during StBu deprotection [1, 7]: 0%
% remaining by LC-MS [1, 8]: 70%
% remaining by LC-MS [1, 9]: 58%
% remaining by LC-MS [1, 10]: 30%
% remaining by LC-MS [1, 11]: 64%

CC[C@H](C)[C@H]1C(=O)N[C@@H](Cc2ccc(-c3ccccc3)cc2)C(=O)N[C@H](C(=O)N2CCCCC2)CSCC(=O)N(C)[C@@H](CC(C)C)C(=O)N[C@@H]([C@@H](C)O)C(=O)N(C)CC(=O)N(C)[C@@H](CC(C)C)C(=O)N[C@@H](CO)C(=O)N1C [Compound P-104, Ac*-MeLeu-Thr-MeGly-MeLeu-Ser-MeIle-Bip-Cys*-piperidine] ({CH2CO}-[NMeL]T[Sar][NMeL]S[NMeI][Bip]C-Piperidide; thioether N-8)
half-life at 2 uM [2]: > 60 h
Hepatic Microsome CLh, int (Mouse) In the absence of NADPH [3]: 6.9 ul/min/mg Protein
microsomal CLint at 1 uM [3]: 106 µL/min/mg

CC(C)C[C@H]1C(=O)N[C@H](C(=O)N2CCCCC2)CSCC(=O)N(C)[C@@H](Cc2ccccc2)C(=O)N(C)[C@@H](C)C(=O)N[C@@H](Cc2ccccc2)C(=O)N(C)[C@@H](CC(C)C)C(=O)N[C@@H]([C@@H](C)O)C(=O)N(C)CC(=O)N1C [Compound P-105, Ac*-MePhe-MeAla-Phe-MeLeu-Thr-MeGly-MeLeu-Cys*-piperidine] ({CH2CO}-[NMeF][NMeA]F[NMeL]T[Sar][NMeL]C-Piperidide; thioether N-8)
half-life at 2 uM [2]: > 60 h
Hepatic Microsome CLh, int (Mouse) In the absence of NADPH [3]: 5.1 ul/min/mg Protein
microsomal CLint at 1 uM [3]: 278 µL/min/mg

CC(C)C[C@H]1C(=O)N[C@@H](COC(C)(C)C)C(=O)N[C@H](C(=O)N2CCCCC2)CSCC(=O)N(C)[C@@H](C)C(=O)N[C@@H](Cc2ccccc2)C(=O)N(C)[C@@H](CC(C)C)C(=O)N[C@@H]([C@@H](C)O)C(=O)N(C)CC(=O)N1C [Compound P-106, Ac*-MeAla-Phe-MeLeu-Thr-MeGly-MeLeu-Ser(tBu)-Cys*-piperidine] ({CH2CO}-[NMeA]F[NMeL]T[Sar][NMeL]S(tBu)C-Piperidide; thioether N-8)
half-life at 2 uM [2]: > 60 h
Hepatic Microsome CLh, int (Mouse) In the absence of NADPH [3]: 1.9 ul/min/mg Protein
microsomal CLint at 1 uM [3]: 151 µL/min/mg

CC[C@H](C)[C@H]1C(=O)N[C@H](C(=O)N2CCCCC2)CSCC(=O)N[C@@H](Cc2ccccc2)C(=O)N(C)[C@@H](CC(C)C)C(=O)N[C@@H]([C@@H](C)O)C(=O)N(C)CC(=O)N(C)[C@@H](CC(C)C)C(=O)N[C@@H](COC(C)(C)C)C(=O)N1C [Compound P-107, Ac*-Phe-MeLeu-Thr-MeGly-MeLeu-Ser(tBu)-MeIle-Cys*-piperidine] ({CH2CO}-F[NMeL]T[Sar][NMeL]S(tBu)[NMeI]C-Piperidide; thioether N-8)
half-life at 2 uM [2]: > 60 h
Hepatic Microsome CLh, int (Mouse) In the absence of NADPH [3]: 10.1 ul/min/mg Protein
microsomal CLint at 1 uM [3]: 111 µL/min/mg

CC(C)C[C@H]1C(=O)N[C@@H](COC(C)(C)C)C(=O)N[C@H](C(=O)N2CCCCC2)CSCC(=O)N(C)[C@@H](Cc2ccccc2)C(=O)N(C)[C@@H](C)C(=O)N(C)[C@@H](Cc2ccccc2)C(=O)N(C)[C@@H](CC(C)C)C(=O)N[C@@H]([C@@H](C)O)C(=O)N(C)CC(=O)N1C [Compound P-108, Ac*-MePhe-MeAla-MePhe-MeLeu-Thr-MeGly-MeLeu-Ser(tBu)-Cys*-piperidine] ({CH2CO}-[NMeF][NMeA][NMeF][NMeL]T[Sar][NMeL]S(tBu)C-Piperidide; thioether N-9)
half-life at 2 uM [2]: > 60 h
Hepatic Microsome CLh, int (Mouse) In the absence of NADPH [3]: 5.2 ul/min/mg Protein
microsomal CLint at 1 uM [3]: 72.3 µL/min/mg

CC[C@H](C)[C@H]1C(=O)N[C@@H]([C@@H](C)O)C(=O)N(C)CC(=O)N(C)[C@@H](CC(C)C)C(=O)N[C@H](C(=O)N2CCCCC2)CC(=O)N(C)[C@@H](C)C(=O)N[C@@H](CC(C)C)C(=O)N(C)[C@@H](CC(C)C)C(=O)N(C)[C@@H](Cc2ccccc2)C(=O)N[C@@H](C)C(=O)N(C)[C@@H](Cc2ccccc2)C(=O)N1C [DP-101] ([NMeA]L[NMeL][NMeF]A[NMeF][NMeI]T[Sar][NMeL]D-Piperidide; lactam N-11)
Papp at 18 hours, 50 µM [4]: 56 ×10⁻⁶ cm/s
microsomal CLint at 1 uM [5]: 101 µL/min/mg
AUC (in vivo; iv): 83300 ng·h/mL
C0 (in vivo; iv): 112 µg/mL
Vd (in vivo; iv): 0.455 L/kg
clearance (in vivo; iv): 4.01 mL/min/kg
half-life (in vivo; iv): 1.91 h
AUC (in vivo; po): 12700 ng·h/mL
CL/F (in vivo; po): 26.2 mL/min/kg
Cmax (in vivo; po): 2.32 µg/mL
Tmax (in vivo; po): 1.83 h
bioavailability (in vivo; po): 15.2%
half-life (in vivo; po): 2.27 h

Nc1ccn([C@H]2C[C@H](OP(=O)(O)OC[C@H]3O[C@@H](n4cnc5c(N)ncnc54)[C@H](O)[C@@H]3O)[C@@H](COP(=O)(O)O)O2)c(=O)n1 [pdCpA, ((2R,3S,5R)-5-(4-amino-2-oxopyrimidin-1(2H)-yl)-3-(((((2R,3S,4R,5R)-5-(6-amino-9H-purin-9-yl)-3,4-dihydroxytetrahydrofuran-2-yl)methoxy)(hydroxy)phosphoryl)oxy)tetrahydrofuran-2-yl)methyl dihydrogenphosphate, reference compound]
% by LC-MS during StBu deprotection [1, 6]: 49%
% by LC-MS during StBu deprotection [1, 7]: 100%
% remaining by LC-MS [1, 8]: 30%
% remaining by LC-MS [1, 9]: 42%
% remaining by LC-MS [1, 10]: 70%
% remaining by LC-MS [1, 11]: 36%
% remaining by LC-MS [1, 12]: 0%
% remaining by LC-MS [1, 13]: 0%
% remaining by LC-MS [1, 14]: 51%
% remaining by LC-MS [1, 15]: 65%

CN[C@@H](CSSC(C)(C)C)C(=O)O[C@H]1[C@@H](O)[C@H](n2cnc3c(N)ncnc32)O[C@@H]1COP(=O)(O)O[C@H]1C[C@H](n2ccc(N)nc2=O)O[C@@H]1COP(=O)(O)O [pdCpA-MeCys(StBu), (2R)-(2R,3S,4R,5R)-2-((((((2R,3S,5R)-5-(4-amino-2-oxopyrimidin-1(2H)-yl)-2-((phosphonooxy)methyl)tetrahydrofuran-3-yl)oxy)(hydroxy)phosphoryl)oxy)methyl)-5-(6-amino-9H-purin-9-yl)-4-hydroxytetrahydrofuran-3-yl 3-(tert-butyldisulfanyl)-2-(methylamino)propanoate]
% remaining by LC-MS [1, 12]: 100%
% remaining by LC-MS [1, 13]: 100%
% remaining by LC-MS [1, 14]: 49%
% remaining by LC-MS [1, 15]: 35%
